In patent US11040031B2, “Pyrazole derivatives as MALT1 inhibitors” (Janssen Pharmaceutica NV, priority 2018, dated 2021):
pIC50: −log10 of the molar value.

Molecular target: T1, full-length MALT1 protein (Strep-MALT1(1-824)-His) (Homo sapiens, UniProt Q9UDY8)
T1 sequence (Q9UDY8 1-824): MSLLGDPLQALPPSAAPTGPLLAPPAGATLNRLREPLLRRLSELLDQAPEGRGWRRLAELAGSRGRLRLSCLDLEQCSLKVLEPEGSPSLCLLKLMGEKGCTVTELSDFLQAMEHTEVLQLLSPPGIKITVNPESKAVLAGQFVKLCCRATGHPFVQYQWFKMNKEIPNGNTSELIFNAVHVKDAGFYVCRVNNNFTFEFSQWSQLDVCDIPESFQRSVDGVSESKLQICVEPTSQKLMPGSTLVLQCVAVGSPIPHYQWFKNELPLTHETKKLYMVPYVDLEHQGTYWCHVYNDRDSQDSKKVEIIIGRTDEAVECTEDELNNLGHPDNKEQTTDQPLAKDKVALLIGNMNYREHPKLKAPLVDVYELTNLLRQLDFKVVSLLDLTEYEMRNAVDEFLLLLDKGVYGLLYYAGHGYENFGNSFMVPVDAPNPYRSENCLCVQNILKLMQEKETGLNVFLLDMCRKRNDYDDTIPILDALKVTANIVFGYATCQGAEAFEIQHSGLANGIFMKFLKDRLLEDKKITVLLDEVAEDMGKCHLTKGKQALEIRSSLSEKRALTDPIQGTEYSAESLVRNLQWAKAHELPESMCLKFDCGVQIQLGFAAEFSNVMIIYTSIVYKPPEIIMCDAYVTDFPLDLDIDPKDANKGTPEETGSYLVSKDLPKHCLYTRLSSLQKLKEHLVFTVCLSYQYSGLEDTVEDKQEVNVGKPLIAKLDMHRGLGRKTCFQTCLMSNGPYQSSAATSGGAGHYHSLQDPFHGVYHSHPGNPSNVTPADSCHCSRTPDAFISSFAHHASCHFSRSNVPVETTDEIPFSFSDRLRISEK
Assay: biochemical
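Note: fluorogenic LRSR-AMC substrate cleavage by MALT1, 50 min compound preincubation then 4 h reaction at RT, 11-point dilution from 30 µM, scaled between enzyme-free and untreated enzyme controls.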

Description: MALT1 protease activity was assessed in an in vitro assay using a tetrapeptide as substrate and full-length MALT1 protein (Strep-MALT1(1-824)-His) purified from baculovirus-infected insect cells. The tetrapeptide LRSR is coupled to AMC (7-amino-4-methylcoumarin) and provides a quenched, fluorescent substrate for the MALT1 protease (SM Biochemicals). Cleavage of AMC from the Arginine residue results in an increase in coumarin fluorescence measured at 460 nm (excitation 355 nm). […] Test compounds were spotted at 50 nL in 100% DMSO per well of a black 384-Proxiplate (Perkin Elmer). Test compound concentrations ranged from 30 μM to 0.5 nM using 11 dilution steps (1:3). Background signal was measured from control wells containing assay buffer without enzyme which functions as low control (LC). High control (HC) values were generated using the reaction with enzyme but no compound treatment. Compounds were pre-incubated with MALT1 enzyme for 50 minutes at RT. Substrate was added subsequently and fluorescence was measured in Labsystems fluoroskan at excitation 355 nm and emission 460 nm to determine time 0. The reaction was subsequently incubated for 4 h at RT and fluorescence was measured. […] The enzyme reaction was linear during the 4 h incubation period.
IC50 values were calculated using the following formula (Z prime should be >0.5):
From this an IC50 value (inhibitory concentration causing 50% inhibition) can be obtained. An estimate of the slope of the plot in terms of the Hill coefficient was also obtained.
With y=estimated response • UB=upper bound • LB=lower bound • h=hill

Structure (SMILES)	pIC50
N#Cc1cc(NC(=O)c2cnn(-c3nc(Cl)ccc3C(F)(F)F)c2C(F)(F)F)cnc1-n1nccn1 [Cpd 164, 1-(6-chloro-3-(trifluoromethyl)pyridin-2-yl)-N-(5-cyano-6-(2H-1,2,3-triazol-2-yl)pyridin-3-yl)-5-(trifluoromethyl)-1H-pyrazole-4-carboxamide]	5.85
O=C(Nc1cnc(-n2nccn2)c(Cl)c1)c1cnn(-c2nc(Cl)ccc2C(F)(F)F)c1C(F)(F)F [Cpd 165, 1-(6-chloro-3-(trifluoromethyl)pyridin-2-yl)-N-(5-chloro-6-(2H-1,2,3-triazol-2-yl)pyridin-3-yl)-5-(trifluoromethyl)-1H-pyrazole-4-carboxamide]	5.64
O=C(Nc1cnc(-n2nccn2)c(Cl)c1)c1cnn(-c2ccccn2)c1C(F)(F)F [Cpd 8, N-(5-Chloro-6-(2H-1,2,3-triazol-2-yl)pyridin-3-yl)-1-(pyridin-2-yl)-5-(trifluoromethyl)-1H-pyrazole-4-carboxamide]	5.91
Cc1nc(-n2nccn2)c(Cl)cc1NC(=O)c1cnn(-c2ccc(C#N)c(N)n2)c1C(F)(F)F [Cpd 178, 1-(6-amino-5-cyanopyridin-2-yl)-N-(5-chloro-2-methyl-6-(2H-1,2,3-triazol-2-yl)pyridin-3-yl)-5-(trifluoromethyl)-1H-pyrazole-4-carboxamide]	6.70
CNc1cccc(-n2ncc(C(=O)Nc3cnc(-n4nccn4)c(C#N)c3)c2C(F)(F)F)n1 [Cpd 189, N-(5-cyano-6-(2H-1,2,3-triazol-2-yl)pyridin-3-yl)-1-(6-(methylamino)pyridin-2-yl)-5-(trifluoromethyl)-1H-pyrazole-4-carboxamide]	6.36
N#Cc1cc(-n2ncc(C(=O)Nc3cnc(-n4nccn4)c(Cl)c3)c2C(F)(F)F)ccc1F [Cpd 85, N-(5-chloro-6-(2H-1,2,3-triazol-2-yl)pyridin-3-yl)-1-(3-cyano-4-fluorophenyl)-5-(trifluoromethyl)-1H-pyrazole-4-carboxamide]	5.58
Cc1nccc(-n2ncc(C(=O)Nc3cnc(-n4nccn4)c(C#N)c3)c2C(F)(F)F)c1C [Cpd 42, N-(5-cyano-6-(2H-1,2,3-triazol-2-yl)pyridin-3-yl)-1-(2,3-dimethylpyridin-4-yl)-5-(trifluoromethyl)-1H-pyrazole-4-carboxamide]	6.74
Cc1cc(S(C)(=O)=O)ccc1-n1ncc(C(=O)Nc2cnc(-n3nccn3)c(Cl)c2)c1C(F)(F)F [Cpd 75, N-(5-chloro-6-(2H-1,2,3-triazol-2-yl)pyridin-3-yl)-1-(2-methyl-4-(methylsulfonyl)phenyl)-5-(trifluoromethyl)-1H-pyrazole-4-carboxamide]	5.97
N#Cc1cc(NC(=O)c2cnn(-c3nc(N)ccc3C(F)(F)F)c2C(F)(F)F)cnc1-n1nccn1 [Cpd 187, 1-(6-amino-3-(trifluoromethyl)pyridin-2-yl)-N-(5-cyano-6-(2H-1,2,3-triazol-2-yl)pyridin-3-yl)-5-(trifluoromethyl)-1H-pyrazole-4-carboxamide]	6.42
N#Cc1cc(NC(=O)c2cnn(-c3ncc(F)cc3C#N)c2C(F)(F)F)cnc1-n1nccn1 [Cpd 35, 1-(3-cyano-5-fluoropyridin-2-yl)-N-(5-cyano-6-(2H-1,2,3-triazol-2-yl)pyridin-3-yl)-5-(trifluoromethyl)-1H-pyrazole-4-carboxamide]	5.65
CS(=O)(=O)c1cccc(-n2ncc(C(=O)Nc3cnc(-n4nccn4)c(Cl)c3)c2C(F)(F)F)c1 [Cpd 74, N-(5-chloro-6-(2H-1,2,3-triazol-2-yl)pyridin-3-yl)-1-(3-(methylsulfonyl)phenyl)-5-(trifluoromethyl)-1H-pyrazole-4-carboxamide]	5.54
Cc1nc(C#N)ccc1-n1ncc(C(=O)Nc2cnc(-n3nccn3)c(Cl)c2)c1C(F)(F)F [Cpd 201, N-(5-chloro-6-(2H-1,2,3-triazol-2-yl)pyridin-3-yl)-1-(6-cyano-2-methylpyridin-3-yl)-5-(trifluoromethyl)-1H-pyrazole-4-carboxamide]	6.86
CN1CCCc2c1cccc2-n1ncc(C(=O)Nc2cnc(-n3nccn3)c(C#N)c2)c1C(F)(F)F [Cpd 127, N-(5-cyano-6-(2H-1,2,3-triazol-2-yl)pyridin-3-yl)-1-(1-methyl-1,2,3,4-tetrahydroquinolin-5-yl)-5-(trifluoromethyl)-1H-pyrazole-4-carboxamide]	6.43
Cc1ccc(-n2ncc(C(=O)Nc3cc(C#N)c(-n4nccn4)nc3C)c2C(F)(F)F)nc1N [Cpd 197, 1-(6-amino-5-methylpyridin-2-yl)-N-(5-cyano-2-methyl-6-(2H-1,2,3-triazol-2-yl)pyridin-3-yl)-5-(trifluoromethyl)-1H-pyrazole-4-carboxamide]	5.60
Cc1cnc(N2CC(O)C2)cc1-n1ncc(C(=O)Nc2cnc(-n3nccn3)c(Cl)c2)c1C(F)(F)F [Cpd 156, N-(5-chloro-6-(2H-1,2,3-triazol-2-yl)pyridin-3-yl)-1-(2-(3-hydroxyazetidin-1-yl)-5-methylpyridin-4-yl)-5-(trifluoromethyl)-1H-pyrazole-4-carboxamide]	5.89
COC(C)c1ccccc1-n1ncc(C(=O)Nc2cnc(-n3nccn3)c(Cl)c2)c1C(F)(F)F (stereo not drawn) [Cpd 118, N-(5-Chloro-6-(2H-1,2,3-triazol-2-yl)pyridin-3-yl)-1-(2-(1-methoxyethyl)phenyl)-5-(trifluoromethyl)-1H-pyrazole-4-carboxamide]	5.53
CNc1ccc(-n2ncc(C(=O)Nc3cnc(-n4nccn4)c(C#N)c3)c2C(F)(F)F)cn1 [Cpd 124, N-(5-cyano-6-(2H-1,2,3-triazol-2-yl)pyridin-3-yl)-1-(6-(methylamino)pyridin-3-yl)-5-(trifluoromethyl)-1H-pyrazole-4-carboxamide]	5.92

The remaining lines, values ahead:

pIC50	Structure (SMILES)
5.61	Cc1cccc(-n2ncc(C(=O)Nc3cnc(-n4nccn4)c(Cl)c3)c2C(F)(F)F)c1 [Cpd 28, N-(5-chloro-6-(2H-1,2,3-triazol-2-yl)pyridin-3-yl)-1 (m-tolyl)-5-(trifluoromethyl)-1H-pyrazole-4-carboxamide]
5.93	O=C(Nc1cnc(-n2nccn2)c(Cl)c1)c1cnn(-c2ccc(F)nc2)c1C(F)(F)F [Cpd 121, N-(5-chloro-6-(2H-1,2,3-triazol-2-yl)pyridin-3-yl)-1-(6-fluoropyridin-3-yl)-5-(trifluoromethyl)-1H-pyrazole-4-carboxamide]
6.76	Cc1c(-n2ncc(C(=O)Nc3cnc(-n4nccn4)c(Cl)c3)c2C(F)(F)F)ccnc1N [Cpd 199, 1-(2-amino-3-methylpyridin-4-yl)-N-(5-chloro-6-(2H-1,2,3-triazol-2-yl)pyridin-3-yl)-5-(trifluoromethyl)-1H-pyrazole-4-carboxamide]
5.77	Cc1cncc(-n2ncc(C(=O)Nc3cnc(-n4nccn4)c(Cl)c3)c2C(F)(F)F)c1 [Cpd 16, N-(5-Chloro-6-(2H-1,2,3-triazol-2-yl)pyridin-3-yl)-1-(5-methylpyridin-3-yl)-5-(trifluoromethyl)-1H-pyrazole-4-carboxamide]
5.88	CNc1ccc(-n2ncc(C(=O)Nc3cnc(-n4nccn4)c(Cl)c3)c2C(F)(F)F)cn1 [Cpd 122, N-(5-chloro-6-(2H-1,2,3-triazol-2-yl)pyridin-3-yl)-1-(6-(methylamino)pyridin-3-yl)-5-(trifluoromethyl)-1H-pyrazole-4-carboxamide]
5.72	Nc1ccc(-n2ncc(C(=O)Nc3cnc(-n4nccn4)c(Cl)c3)c2C(F)(F)F)cn1 [Cpd 125, 1-(6-aminopyridin-3-yl)-N-(5-chloro-6-(2H-1,2,3-triazol-2-yl)pyridin-3-yl)-5-(trifluoromethyl)-1H-pyrazole-4-carboxamide]
5.68	Cc1cccc(-n2ncc(C(=O)Nc3cnc(-n4nccn4)c(Cl)c3)c2C(F)(F)F)n1 [Cpd 24, N-(5-chloro-6-(2H-1,2,3-triazol-2-yl)pyridin-3-yl)-1-(6-methylpyridin-2-yl)-5-(trifluoromethyl)-1H-pyrazole-4-carboxamide]
6.11	O=C(Nc1cnc(-n2nccn2)c(Cl)c1)c1cnn(-c2ccc(F)c(Cl)c2)c1C(F)(F)F [Cpd 108, 1-(3-chloro-4-fluorophenyl)-N-(5-chloro-6-(2H-1,2,3-triazol-2-yl)pyridin-3-yl)-5-(trifluoromethyl)-1H-pyrazole-4-carboxamide]
5.77	COc1ccc(-n2ncc(C(=O)Nc3cnc(-n4nccn4)c(Cl)c3)c2C(F)(F)F)cn1 [Cpd 13, N-(5-Chloro-6-(2H-1,2,3-triazol-2-yl)pyridin-3-yl)-1-(6-methoxypyridin-3-yl)-5-(trifluoromethyl)-1H-pyrazole-4-carboxamide]
5.46	O=C(Nc1cnc(-n2nccn2)c(Cl)c1)c1cnn(-c2cncnc2)c1C(F)(F)F [Cpd 15, N-(5-Chloro-6-(2H-1,2,3-triazol-2-yl)pyridin-3-yl)-1-(pyrimidin-5-yl)-5-(trifluoromethyl)-1H-pyrazole-4-carboxamide]
